Measurements taken from patent US12006318B2, “Crystalline forms of C-C chemokine receptor type 4 antagonist and uses thereof” (RAPT THERAPEUTICS, INC., priority 2019, dated 2024).
Where two headings read alike, the source gives them in different places.

How the values were obtained:
[1] = Solubility (kinetic solubility) of salt forms at pH 2; assay type: physicochemical; settings: for solubility: in pH 2 water
[2] = Storage stability at room temperature; assay type: physicochemical; settings: after 36 months of storage at room temperature
[3] = Bioavailability of salt forms in rats; assay type: in vivo; settings: for bioavailability: in rats
[4] = Hygroscopicity of the crystalline salt; assay type: physicochemical

solubility (in words) ([1]; embodiment statement) | solubility ([1]; water at pH 2, aqueous buffer) | stability on storage [2] | stability on storage ([2]; listed as benzenesulfonic acid salt) | bioavailability (in words) ([3]; embodiment statement) | bioavailability ([3]; rat, in vivo, read-out: bioavailability) | hygroscopicity [4] | kinetic solubility as fraction of that of the HCl salt ([1]; at pH 2, relative to HCl salt) | solubility [1] | solubility compared with the amorphous HCl salt ([1]; relative to amorphous HCl salt) | bioavailability [3] | Structure (SMILES)
good solubility | 411 µM | outstanding stability | superior stability | good bioavailability | 34% | low hygroscopicity |  |  |  |  | C[C@H](c1ccc(Cl)cc1Cl)n1nc(C(F)(F)F)c2ncc(N3CC([C@H]4CCCN(CCO)C4)C3)nc21 [crystalline form A, 2-((R)-3-(1-(1-((R)-1-(2,4-Dichlorophenyl)ethyl)-3-(trifluoromethyl)-1H-pyrazolo[3,4-b]pyrazin-6-yl)azetidin-3-yl)piperidin-1-yl)ethan-1-ol benzene sulfonate]
 |  |  |  |  |  |  | ⅕ | 190 µM | less soluble | 22% | C[C@H](c1ccc(Cl)cc1Cl)n1nc(C(F)(F)F)c2ncc(N3CC([C@H]4CCCN(CCO)C4)C3)nc21.Cc1ccc(S(=O)(=O)O)cc1 [para-toluenesulfonic acid salt]
